Literature values as cited in patent US20020179884A1, “Disinfecting and deodorizing agent” (priority 2000, published 2002).

settings: 25° C.

| Compound | pKa25 |
| --- | --- |
| O=C([O-])O.[Na+] [sodium hydrogencarbonate] | 10.33 |
| O=BOB(O)OB(O)OB=O [sodium tetraborate] | 9.24 |
| O=P(O)(O)OP(=O)(O)OP(=O)(O)O [sodium tripolyphosphate] | 9.70 |
| O=P([O-])([O-])OP(=O)([O-])O.[Na+].[Na+].[Na+] [trisodium pyrophosphate] | 8.95 |
